From article PMC6753678, “Fueling Open Innovation for Malaria Transmission-Blocking Drugs: Hundreds of Molecules Targeting Early Parasite Mosquito Stages” (Frontiers in Microbiology, 2019)

System: P. berghei ookinete development
Details: for % inhibition, Replicate A / % inhibition, Replicate B: primary screen at 1 μM

Row | SMILES | % inhibition, Replicate A [%] | % inhibition, Replicate B [%] | IC50 (read-out: Pb Ookinete development assay IC50, dose response confirmation) [µM]
1 | CNCCN(C)C(=O)Oc1c(Cl)c(C)nc(C)c1-c1ccc(Oc2ccc(OC(F)(F)F)cc2)cc1.Cl [TCMDC-137384] | 31.42 | 56.87 | 
2 | CCCc1cc2c3c(N)nc(N)nc3ccc2n1CC [TCMDC-137946] | 61.03 | 76.85 | 
3 | Cc1[nH]c(C)c(-c2ccc(S(=O)(=O)c3ccc(Cl)cc3)cc2)c(=O)c1Cl [TCMDC-137412] | 78.54 | 115.81 | 
4 | CCSc1ccccc1COc1c(C)nc(N)nc1N.Cl [TCMDC-131359] | 61.82 | 19.87 | 
5 | Cc1cc2c3c(N)nc(N)nc3ccc2n1C [TCMDC-137957] | 66.89 | 77.62 | 
6 | COc1ccc2nccc(NC(=O)N3CCC(NCc4cc5ccccc5[nH]4)CC3)c2n1.O=C(O)C(=O)O [TCMDC-140671] | 55.02 | 18.69 | 
7 | Br.CCc1ccccc1OCCCON1C(=N)N=C(N)NC1(C)C [TCMDC-131305] | 58.24 | 46.89 | 
8 | Cl.N=C(N)NN=Cc1c2ccccc2c(Cl)c2c(Cl)cccc12 [TCMDC-137898] | 66.37 | 24.36 | 
9 | CC(C)COc1ccc(Cl)cc1Cc1ccc(-c2nc3cnc4ccccc4c3[nH]2)o1 [TCMDC-136650] | 61.46 | 37.55 | 
10 | c1ccc(-c2csc(Nc3nc4cc5c(cc4s3)OCO5)n2)nc1 [TCMDC-124550] | 83.78 | 59.07 | 
11 | CS(=O)(=O)Cc1ccc(Nc2nccc(-c3c(-c4cccc(NC(=O)c5c(F)cccc5F)c4)nn4ccccc34)n2)cc1 [TCMDC-135669] | 21.89 | 53.61 | 
12 | Cc1cc(C(=O)NC2CCN(CC3(c4ccc(Cl)cc4)CCC3)CC2)on1 [TCMDC-124833] | 70.28 | 68.63 | 
13 | CCN(CC)CCN(Cc1ccc(-c2ccc(C(F)(F)F)cc2)cc1)C(=O)Cn1cc(CCCCc2cccc(F)c2F)c(=O)c2ccccc21.O=C(O)C(O)C(O)C(=O)O [TCMDC-141340] | 60.00 | 20.87 | 
14 | N=C1NC(=N)N(OCCCCCCON2C(=N)NC(=N)NC2C=Cc2ccccc2)C(C=Cc2ccccc2)N1 (stereo not shown) [TCMDC-131602] | 52.81 | 32.33 | 
15 | O=C(Nc1cccc(C(F)(F)F)c1)c1cccc(S(=O)(=O)NCC2CCCN2CC2CCCCC2)c1.O=C(O)C(F)(F)F (stereo not shown) [TCMDC-133687] | 11.95 | 57.11 | 
16 | Cc1c(CNCCCNc2cc(=O)c3ccccc3[nH]2)sc(-c2ccco2)c1Br.Cl [TCMDC-141065] | 4.54 | 52.38 | 
17 | CCCCCCNC(=O)C1Cc2c([nH]c3ccc(Br)cc23)C2(CCN(CCc3ccccc3)CC2)N1 (stereo not shown) [TCMDC-141182] | 15.53 | 59.10 | 
18 | COc1ccccc1CCNc1nc(C)cc(N[C@@H](Cc2ccccc2)C(=O)Nc2ccccc2)n1.O=C(O)C(F)(F)F [TCMDC-134804] | 57.50 | 38.80 | 
19 | Cc1nc(SCC(=O)N2CCCC2=O)c2c(C)c(C)sc2n1 [TCMDC-123558] | 50.04 | 22.22 | 

Row | SMILES | % inhibition, Replicate A [%] | % inhibition, Replicate B [%] | IC50 (read-out: Pb Ookinete development assay IC50, dose response confirmation) [µM]
20 | CCCCCc1cnc2nc(N)nc(N)c2c1C.Cl [TCMDC-137717] | 60.03 | 27.06 | 
21 | Cc1nc2ccc(-c3ccc(OC(F)(F)F)cc3)cc2c(O)c1C#N [TCMDC-136129] | 117.05 | 93.07 | 
22 | CC(C)n1ncc2c3c(N)nc(N)nc3ccc21 [TCMDC-137866] | 87.47 | 39.71 | 
23 | CC(=O)Nc1cccc(CN(Cc2ccc(-c3ccc(CNCc4cccnc4)cn3)cc2)C(=O)Cc2cccnc2)c1.O=C(O)C(F)(F)F [TCMDC-141604] | 63.32 | 20.87 | 
24 | Cc1cnc(C(=O)Nc2cccc(-c3ccc(-c4nc5cc(C(F)(F)F)ccc5[nH]4)s3)c2)cn1 [TCMDC-137028] | 1.65 | 57.27 | 
25 | CC(C)Oc1ccc2c(c1)OC(c1ccccc1)(C(F)(F)F)NC2=O (stereo not shown) [TCMDC-123633] | 24.49 | 54.58 | 
26 | COc1cc(-c2cnc(N)c(-c3nc4ccccc4[nH]3)c2)cc(OC)c1OC.Cl [TCMDC-138793] | 57.35 | 34.54 | 
27 | CCN(CC)CCCC(C)Nc1c(-c2ccc(C)cc2)cnc2ccccc12 (stereo not shown) [TCMDC-142264] | 53.92 | 8.32 | 
28 | COc1ccc(Nc2nc(C)cc(NC3CCCC3)n2)cc1 [TCMDC-133465] | 51.72 | 31.38 | 
29 | Cl.O=C(CNC1CCCCC1)c1ccc(O)c(O)c1 [TCMDC-123961] | 31.52 | 68.95 | 
30 | O=C(Nc1ccc(Cl)cc1)N(CC1CC2CCC(C1)N2Cc1ccc(C(F)(F)F)cc1)c1ccc(N2CCOCC2)c(F)c1 (stereo not shown) [TCMDC-135859] | 55.58 | 25.24 | 
31 | COc1ccc2nc(-c3cc(-c4ccc(NC(=O)CN5CCOCC5)cc4)cnc3N)[nH]c2c1 [TCMDC-135373] | 111.93 | 79.71 | 
32 | Cc1nc(N)nc(N)c1CCCOc1ccccc1Cl [TCMDC-137929] | 38.99 | 55.23 | 
33 | Cn1ncc2ccc(Nc3nccc(-c4ccc5c(c4)c(N)nn5C)n3)cc21 [TCMDC-137049] | 55.92 | 51.61 | 
34 | COc1cc(OC)cc(-c2nn(-c3ccc([N+](=O)[O-])cc3C#N)c(=S)n2CC2CCCO2)c1 (stereo not shown) [TCMDC-134716] | 44.85 | 53.94 | 5.46
35 | Cc1nc(C)c(-c2ccc(C(=O)c3ccccc3)cc2)c(O)c1Br [TCMDC-137419] | 112.31 | 126.66 | 
36 | O=C(N[C@H]1CCN(CCc2ccc(O[C@H]3CCNC3)cc2)C1)c1ccc(Cl)c(Cl)c1.O=C(O)C(F)(F)F [TCMDC-141066] | 57.79 | 22.51 | 
37 | COc1ccccc1-c1cccc(CNC2CCN(CC3Cn4c(=O)ccc5ccc(F)c3c54)CC2)c1.O=C(O)C(F)(F)F (stereo not shown) [TCMDC-134411] | 72.27 | 57.51 | 
38 | Nc1ncnc2cc(-c3cccc(S(N)(=O)=O)c3)sc12 [TCMDC-135294] | 103.63 | 97.06 | 

Row | SMILES | % inhibition, Replicate A [%] | % inhibition, Replicate B [%] | IC50 (read-out: Pb Ookinete development assay IC50, dose response confirmation) [µM]
39 | Cc1[nH]cc(Br)c(=O)c1-c1ccc(Oc2ccc(OC(F)(F)F)cc2)cc1 [TCMDC-136197] | 35.07 | 51.32 | 
40 | CC(=O)c1c[nH]c2ccc(/C=C/C(=O)NC3CCC(CCN4CCc5ccc(C#N)cc5CC4)CC3)cc12.Cl (stereo not shown) [TCMDC-139781] | 63.32 | 35.61 | 
41 | COc1cc(CN2CCN(c3ccnc(N(C)C4CCN(C)CC4)n3)CC2)cc(Cl)c1O [TCMDC-125096] | 51.09 | 24.20 | 
42 | CN(C)CCCOc1ccccc1CN1CC[C@H](NC(=O)c2ccc(Cl)c(Cl)c2)C1.O=C(O)C(F)(F)F [TCMDC-140310] | -10.45 | 74.47 | 
43 | O=C(/C=C/c1ccc(Cl)c(Cl)c1)NCCCCCN1CCCN(C(=O)Nc2cc(Cl)nc(Cl)c2)CC1 [TCMDC-135888] | 61.66 | 48.73 | 
44 | COc1cc(C(=O)N2CCOC(CCN3CCC(c4ccc(Cl)cc4)CC3)(c3ccc(Cl)c(Cl)c3)C2)cc(OC)c1OC (stereo not shown) [TCMDC-135566] | 63.32 | 35.61 | 
45 | Br.CC1(C)N=C(N)N=C(N)N1OCCc1ccc2ccccc2c1 [TCMDC-131755] | 66.00 | 52.02 | 
46 | COc1ccc2nc3cc(Cl)ccc3c(Nc3ccc(C(=O)O)cc3)c2c1.Cl [TCMDC-138029] | 92.30 | 90.70 | 
47 | Cc1cc(Nc2cccc(C#N)c2)nc(Nc2ccccc2C)n1 [TCMDC-133471] | 56.49 | 36.05 | 
48 | O=[N+]([O-])c1ccccc1C=NN=c1c2c([nH]c3ccccc13)CCCC2 [TCMDC-142202] | 51.15 | 30.70 | 
49 | Cc1cccc2nc(-c3ccc(-c4ccc(NC(=O)NCc5cccc(F)c5)cc4)cc3)[nH]c12 [TCMDC-133294] | 56.07 | 54.12 | 
50 | CCCC(=O)Nc1ccc(Cl)c(NC(=O)COc2cc(C)ccc2C(C)C)c1 [TCMDC-123706] | 60.12 | 20.94 | 
51 | Cc1cc(CNCCCCCCNCc2ccc(Cl)cc2)ccc1O [TCMDC-140414] | 6.85 | 50.55 | 
52 | CS(=O)(=O)NCCCNCc1cccc(-c2ccc(-c3nc4ccccc4[nH]3)s2)c1.O=C(O)C(F)(F)F [TCMDC-133088] | 41.67 | 56.04 | 
53 | C=Cc1cc(OC)c2c(c1)c(=O)oc1c2cc(OC)c2c(O)ccc([C@H]3O[C@H]([C@H](C)O)[C@H](O)[C@H]3O)c21 [TCMDC-141972] | 89.48 | 109.41 | 
54 | CC=Cc1cc(Cc2c[nH]c(=N)[nH]c2=N)cc(CCC)c1OC [TCMDC-137634] | 54.07 | 40.96 | 
55 | COc1cc(Cc2cnc(N)nc2N)ccc1OCc1ccc(-c2csnn2)cc1 [TCMDC-138683] | 55.66 | 28.96 | 
56 | CCOC(=O)c1cn(CC)c2cc(N3CCCCCC3)c(F)cc2c1=O [TCMDC-124160] | 101.92 | 113.32 | 
57 | C=CCc1cc(Cc2cnc(N)nc2N)cc(CCC)c1OC [TCMDC-138039] | 8.79 | 53.34 | 
